Patent publication US6964766B1, “Peptides for use in immunotherapy of autoimmune diseases” (Akzo Nobel N.V., priority 1998, dated 2005)
“And” between values parts separate entries of the source, which are not always exact repeats. Identical values can stand only once. “Also recorded” adds a separate entry of the source. No end group written: not given here.

Tests used:
PBMC from RA patients [1] = experiment: recognition by PBMC ([3H]thymidine incorporation, stimulation index); type: cell-based, human; conditions: Table 3b, per donor (169, 455, 447, 327)
Balb/c mice = conditions: single injection in the chest region, μg amounts of protein in IFA; cited from earlier work
[2] = target: T1, HLA-DRB1*0401-encoded molecules (Homo sapiens, UniProt P01903+P01911, A100K/A169T/F76Y/I96L/K127E/L162R/M171V/N62H/P40V/Q125Y/R42H/S133A/S149N/S66Y/V115G/V209L/W38E); experiment: competition peptide HLA-DR binding assay
T1 construct: HLA-DR4 (DRB1*0401) molecules were purified from the homozygous EBV-transformed human B lymphoblastoid cell lines Huly138IC2; endogenous in cells; host or cells: homozygous EBV-transformed human B lymphoblastoid cell line Huly138IC2

PBMC from RA patients [3] = experiment: recognition by PBMC ([3H]thymidine incorporation, stimulation index); type: cell-based, human
Procedure: Peripheral blood mononuclear cells (PBMC) were isolated from heparinized peripheral blood by standard centrifugation on Ficoll-Paque (Pharmacia, Uppsala, Sweden). Cells were suspended in wells of a 24 well plate in a concentration of 5×10^5 cells per ml. Cells were incubated in medium alone or in the presence of 10 or 50 μg/ml peptide antigen (YKL-39 (266-278)). Cultures were incubated for 6 days at 37° C. in a humidified atmosphere of 5% CO2. Cells were then suspended and 100 or 150 μl volumes of medium was distributed in 4-fold in wells of a 96-well roundbottomed plate. Cells were then pulsed with 0.5 μCi (1.85×10^4 Bq) [3H]thymidine ([3H]TdR) and 18 hr later incorporated radioactivity was measured. Results as shown in table 3 are expressed as stimulation indices (SI) (antigen-specific counts/background counts).

[4] = test system: HLA-DRB1*0401-restricted hybridomas specific for HC gp-39 (263-275) (8B12, 14G11, 20H5); experiment: stimulation of HC gp-39 (263-275)-specific T-cell hybridomas (IL-2 production); type: cell-based, mouse; conditions: presented by DRB1*0401 EBV-transformed B cells, 48 hr
Procedure: To test the cross reactivity of the 3 different, HC gp39-specific hybridoma cell lines with the YKL-39 or the chitotriosidase peptide, 5×10^4 hybridoma cells and 2×10^5 irradiated (12000 RAD), EBV-transformed B cells carrying the DRB1*0401 specificity were incubated in 150 μl volumes in wells of a round-bottomed microtiter plate. Peptide antigen (HC gp-39 (263-275), YKL-39 (266-278), chitotriosidase (269-282) or a control peptide) was added in 50 μl volumes to duplicate wells. Forty-eight hr later 100 μl of the culture supernatant was assayed for IL-2 production using a sandwich ELISA with Pharmingen antibodies specific for mouse IL-2.

[5] = test system: HC gp-39 (263-275) induced DTH response; experiment: HC gp-39 (263-275)-specific DTH assay, tolerance induction by nasal application; type: in vivo, Balb/c mice; conditions: for tolerance: intranasal pretreatment 50, 10 or 2 micrograms, sensibilisation and challenge with HC gp-39 (263-275)
Description: FIG. 2a, 2b, 2c In vivo tolerization with HC gp-39 (263-275) or YKL-39 ([…]) • Balb/c mice were tolerized by intranasal application of 50, 10 or 2 micrograms of HC gp-39 (263-275), SEQ ID NO: 3, (FIG. 2b) or YKL-39 (266-278) (FIG. 2c) followed by immunization with HC gp-39 (263-275). Mice that were pretreated with saline or that were left untreated were included as controls (FIG. 2a).
A HC gp-39 (263-275)-specific DTH assay suitable to monitor tolerance induction with peptide antigens was developed. […] This peptide-based DTH system was used to detect modulation of the DTH response by nasal application of HC gp-39 (263-275) peptide.

HC gp-39: human cartilage glycoprotein-39, a protein of 362 amino acids, target autoantigen in rheumatoid arthritis
SI 10 μg/ml (PBMC from RA patients [1]; 10 μg/ml antigen): 1 and 12 and 24 and 45 | SI 50 μg/ml (PBMC from RA patients [1]; 50 μg/ml antigen): 1 and 19 and 44 and 95 | arthritogenicity (Balb/c mice): induced a chronic joint inflammation

HSFTLASAETTVG [YKL-39 (266-278), HSFTLASAETTVG]
binding affinity to DRB1*0401 (in words) [2]: very high affinity | recognition by PBMC (in words) (PBMC from RA patients [3]; RA patients): readily recognized | SI 10 μg/ml (PBMC from RA patients [3]; Table 3a, per donor (RA patients), 10 μg/ml peptide, 6 days, SI = antigen-specific counts/background counts): 9 and 15 and <2 (3×) and 4 and 3 (2×) and 19 | SI 50 μg/ml (PBMC from RA patients [3]; Table 3a, per donor (RA patients), 50 μg/ml peptide, 6 days): 9 and 4 and <2 (4×) and 27 and 25 and 58 | SI 10 μg/ml (PBMC from RA patients [3]; Table 3b, per donor (169, 455, 447, 327), 10 μg/ml antigen): 1 and 6 and 27 and 20 | SI 50 μg/ml (PBMC from RA patients [3]; Table 3b, per donor (169, 455, 447, 327), 50 μg/ml antigen): 2 and 5 and 32 and 35 | responder / non-responder (PBMC from RA patients [3]; per donor, RA patients, SI >= 5 regarded positive): R (R = responder); also recorded: NR (NR = non-responder) | activation of T-cell hybridomas, IL-2 production (in words) [4]: response similar to HC gp-39 (263-275) | tolerance [5]: yes | tolerance ([5]; listed as YKL-39 266-278): effective as a tolerogen | downmodulation of the DTH response (in words) ([5]; nasal application, Balb/c mice immunised with HC gp-39 (263-275) in IFA): more enhanced downmodulation
